One data set has as its target T1, hNav1.7 (Homo sapiens, UniProt Q15858).
T1 construct: expressed in transfected cells
Briefly: Tritiated compound binding (LBA) to membranes from cells expressing hNav1.7 and the β1 subunit, competitive binding. The following applies: competitive binding vs 100 pM [3H]compound, 18 h, room temperature, membranes with hNav1.7 and β1 subunit. Put shortly: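 Membranes from cells expressing hNav1.7 with β1 were incubated 18 h at room temperature with 100 pM tritiated formula (I) compound and increasing test compound, in 100 mM NaCl, 20 mM Tris HCl pH 7.4, 0.01% BSA.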

The next data set addresses T2, human NaV1.7 (Homo sapiens, UniProt Q15858).
T2 construct: permanently transfected with an expression vector containing the full-length cDNA coding for the desired human sodium channel α-subunit; expressed in transfected cells; host or cells: HEK-293
Briefly: Patch voltage clamp electrophysiology assay (EP), NaV1.7. It is filed as cell-based. The following applies: HEK-293 cells stably expressing NaV1.7 with β1 subunit; whole-cell patch clamp, membrane potential −60 mV (inactivated state). Put shortly:
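HEK-293 cells stably expressing human α-subunit with β1; whole-cell patch clamp (PatchXpress or manual), ambient temperature, pH 7.4 external NaCl, CsF internal. Held at −60 mV (full inactivation), stepped to −150 mV for 20 ms, then test pulse; percent current decrease after compound wash-on taken as block.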
Background: Patch clamp records ionic current or voltage across a cell membrane.

The target of another data set is T3, NaV1.5 (Homo sapiens, UniProt Q14524).
T3 construct: permanently transfected with an expression vector containing the full-length cDNA coding for the desired human sodium channel α-subunit; expressed in transfected cells; host or cells: HEK-293
The data set can be described thus: Patch voltage clamp electrophysiology assay (EP), NaV1.5. It is filed as cell-based. The following applies: HEK-293 cells stably expressing NaV1.5 with β1 subunit, whole-cell patch clamp, membrane potential −60 mV (inactivated state). The protocol: The following patch voltage clamp electrophysiology studies were performed on representative compounds of the invention using human embryonic kidney cells (HEK), permanently transfected with an expression vector containing the full-length cDNA coding for the desired human sodium channel α-subunit, grown in culture media containing 10% FBS, 1% PSG, and 0.5 mg/mL G418 at 37° C. with 5% CO2. […] NaV1.7 and NaV1.5 cDNAs (NM_002977 and AC137587; SCN5A, respectively) were stably expressed in HEK-293 cells. The β1 subunit was coexpressed in both the NaV1.7 and NaV1.5 cell lines.
Sodium currents were measured using the patch clamp technique in the whole-cell configuration using either a PatchXpress automated voltage clamp or manually using an Axopatch 200B (Axon Instruments) or Model 2400 (A-M systems) amplifier. The manual voltage clamp protocol was as follows: Borosilicate glass micropipettes were fire-polished to a tip diameter yielding a resistance of 2-4 Mohms in the working solutions. The pipette was filled with a solution comprised of: 5 mM NaCl, 10 mM CsCl, 120 mM CsF, 0.1 mM CaCl2, 2 mM MgCl2, 10 mM HEPES, 10 mM EGTA; and adjusted to pH 7.2 with CsOH. The external solution had the following composition: 140 mM NaCl, 5 mM KCl, 2 mM CaCl2, 1 mM MgCl2, 10 mM HEPES; and adjusted to pH 7.4 with NaOH. In some studies, the external sodium was reduced by equimolar replacement with choline. Osmolarity in the CsF internal and NaCl external solutions was adjusted to 300 mOsm/kg and 310 mOsm/kg with glucose, respectively. All recordings were performed at ambient temperature in a bath chamber with a volume of 150 μL. Control sodium currents were measured in 0.5% DMSO. Controls and representative compounds of the invention were applied to the recording chamber through a 4-pinch or 8-pinch valve bath perfusion system manufactured by ALA Scientific Instruments.
Series resistance compensation was applied (60-80%). […] All statistics in this study are given as mean±SD.
The membrane potential was maintained at a voltage where inactivation of the channel is complete (which was −60 mV for both NaV1.7 and NaV1.5). The voltage is then stepped back to a very negative (Vhold=[…]) voltage for 20 ms and then a test pulse is applied to quantify the compound block. […] The percent decrease in sodium current following wash-on of compound was taken as the percent block of sodium channels.

Where [1] appears, read: human, HEK-293 cells stably expressing human NaV1.5 with β1 subunit, pH 7.4.

The structures appear in SMILES notation. Structures can show the parent of a compound that is named as a salt. Where two headings read alike, the source gives them in different places.

T1 sequence (Q15858 1-1977 isoform Q15858-3): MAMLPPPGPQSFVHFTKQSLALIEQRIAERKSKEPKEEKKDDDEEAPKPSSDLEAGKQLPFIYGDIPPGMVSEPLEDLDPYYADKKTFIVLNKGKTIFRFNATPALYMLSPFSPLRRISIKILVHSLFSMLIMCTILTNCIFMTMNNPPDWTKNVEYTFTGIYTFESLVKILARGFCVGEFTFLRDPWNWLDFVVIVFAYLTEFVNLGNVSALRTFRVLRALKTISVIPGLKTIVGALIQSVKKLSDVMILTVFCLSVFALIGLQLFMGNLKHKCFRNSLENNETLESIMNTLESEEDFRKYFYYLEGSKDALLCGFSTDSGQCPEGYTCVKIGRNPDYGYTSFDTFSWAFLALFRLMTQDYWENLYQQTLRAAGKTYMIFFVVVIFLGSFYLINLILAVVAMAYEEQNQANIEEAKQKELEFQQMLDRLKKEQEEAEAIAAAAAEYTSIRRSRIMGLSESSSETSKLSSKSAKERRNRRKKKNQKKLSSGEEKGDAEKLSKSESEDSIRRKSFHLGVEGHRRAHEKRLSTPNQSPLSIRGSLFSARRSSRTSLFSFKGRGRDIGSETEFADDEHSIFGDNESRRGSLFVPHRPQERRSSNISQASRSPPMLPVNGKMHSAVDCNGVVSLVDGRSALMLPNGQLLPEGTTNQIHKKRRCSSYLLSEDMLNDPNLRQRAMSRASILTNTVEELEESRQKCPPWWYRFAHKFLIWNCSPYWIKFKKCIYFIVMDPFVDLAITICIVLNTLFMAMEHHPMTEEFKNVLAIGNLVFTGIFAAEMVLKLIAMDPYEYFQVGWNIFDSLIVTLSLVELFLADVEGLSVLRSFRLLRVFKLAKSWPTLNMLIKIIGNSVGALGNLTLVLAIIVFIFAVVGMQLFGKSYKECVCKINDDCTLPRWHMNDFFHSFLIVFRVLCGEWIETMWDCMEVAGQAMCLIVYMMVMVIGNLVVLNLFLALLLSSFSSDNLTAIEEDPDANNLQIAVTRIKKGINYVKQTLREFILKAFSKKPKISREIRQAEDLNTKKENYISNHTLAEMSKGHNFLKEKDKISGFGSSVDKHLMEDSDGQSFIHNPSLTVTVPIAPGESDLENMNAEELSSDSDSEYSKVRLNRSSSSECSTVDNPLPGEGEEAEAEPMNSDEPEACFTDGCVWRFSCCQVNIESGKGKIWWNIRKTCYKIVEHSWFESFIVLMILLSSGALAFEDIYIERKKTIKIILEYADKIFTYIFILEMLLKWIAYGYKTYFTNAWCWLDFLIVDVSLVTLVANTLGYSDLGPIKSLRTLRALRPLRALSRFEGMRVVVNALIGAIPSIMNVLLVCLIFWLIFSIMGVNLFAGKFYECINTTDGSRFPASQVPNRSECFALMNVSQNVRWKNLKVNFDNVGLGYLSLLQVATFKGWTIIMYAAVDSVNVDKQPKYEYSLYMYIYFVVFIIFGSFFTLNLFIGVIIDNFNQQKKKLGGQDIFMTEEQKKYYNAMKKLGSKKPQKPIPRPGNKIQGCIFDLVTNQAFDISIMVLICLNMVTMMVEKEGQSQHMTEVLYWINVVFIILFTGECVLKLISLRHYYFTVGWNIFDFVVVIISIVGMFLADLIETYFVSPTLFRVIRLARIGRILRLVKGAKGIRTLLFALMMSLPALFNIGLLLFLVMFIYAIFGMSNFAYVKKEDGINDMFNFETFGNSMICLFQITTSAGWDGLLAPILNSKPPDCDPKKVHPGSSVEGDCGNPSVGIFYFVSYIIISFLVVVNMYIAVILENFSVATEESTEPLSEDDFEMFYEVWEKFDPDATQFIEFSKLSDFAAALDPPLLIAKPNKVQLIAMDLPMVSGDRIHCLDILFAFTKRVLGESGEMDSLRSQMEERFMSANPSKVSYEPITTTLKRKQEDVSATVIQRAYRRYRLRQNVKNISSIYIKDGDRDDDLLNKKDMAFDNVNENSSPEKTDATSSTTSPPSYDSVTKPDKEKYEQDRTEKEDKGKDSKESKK
T1 sequence (Q07699 19-218 partner): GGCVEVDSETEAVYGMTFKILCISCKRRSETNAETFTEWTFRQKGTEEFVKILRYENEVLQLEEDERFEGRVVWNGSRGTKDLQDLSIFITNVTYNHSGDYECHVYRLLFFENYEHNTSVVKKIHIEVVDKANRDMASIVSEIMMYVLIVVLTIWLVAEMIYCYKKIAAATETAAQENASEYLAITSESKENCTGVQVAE
T2 sequence (Q15858 1-1977 isoform Q15858-3): as the sequence (Q15858 1-1977 isoform Q15858-3) above
T2 sequence (Q07699 19-218 partner): as the sequence (Q07699 19-218 partner) above
T3 sequence (Q14524 whole entry): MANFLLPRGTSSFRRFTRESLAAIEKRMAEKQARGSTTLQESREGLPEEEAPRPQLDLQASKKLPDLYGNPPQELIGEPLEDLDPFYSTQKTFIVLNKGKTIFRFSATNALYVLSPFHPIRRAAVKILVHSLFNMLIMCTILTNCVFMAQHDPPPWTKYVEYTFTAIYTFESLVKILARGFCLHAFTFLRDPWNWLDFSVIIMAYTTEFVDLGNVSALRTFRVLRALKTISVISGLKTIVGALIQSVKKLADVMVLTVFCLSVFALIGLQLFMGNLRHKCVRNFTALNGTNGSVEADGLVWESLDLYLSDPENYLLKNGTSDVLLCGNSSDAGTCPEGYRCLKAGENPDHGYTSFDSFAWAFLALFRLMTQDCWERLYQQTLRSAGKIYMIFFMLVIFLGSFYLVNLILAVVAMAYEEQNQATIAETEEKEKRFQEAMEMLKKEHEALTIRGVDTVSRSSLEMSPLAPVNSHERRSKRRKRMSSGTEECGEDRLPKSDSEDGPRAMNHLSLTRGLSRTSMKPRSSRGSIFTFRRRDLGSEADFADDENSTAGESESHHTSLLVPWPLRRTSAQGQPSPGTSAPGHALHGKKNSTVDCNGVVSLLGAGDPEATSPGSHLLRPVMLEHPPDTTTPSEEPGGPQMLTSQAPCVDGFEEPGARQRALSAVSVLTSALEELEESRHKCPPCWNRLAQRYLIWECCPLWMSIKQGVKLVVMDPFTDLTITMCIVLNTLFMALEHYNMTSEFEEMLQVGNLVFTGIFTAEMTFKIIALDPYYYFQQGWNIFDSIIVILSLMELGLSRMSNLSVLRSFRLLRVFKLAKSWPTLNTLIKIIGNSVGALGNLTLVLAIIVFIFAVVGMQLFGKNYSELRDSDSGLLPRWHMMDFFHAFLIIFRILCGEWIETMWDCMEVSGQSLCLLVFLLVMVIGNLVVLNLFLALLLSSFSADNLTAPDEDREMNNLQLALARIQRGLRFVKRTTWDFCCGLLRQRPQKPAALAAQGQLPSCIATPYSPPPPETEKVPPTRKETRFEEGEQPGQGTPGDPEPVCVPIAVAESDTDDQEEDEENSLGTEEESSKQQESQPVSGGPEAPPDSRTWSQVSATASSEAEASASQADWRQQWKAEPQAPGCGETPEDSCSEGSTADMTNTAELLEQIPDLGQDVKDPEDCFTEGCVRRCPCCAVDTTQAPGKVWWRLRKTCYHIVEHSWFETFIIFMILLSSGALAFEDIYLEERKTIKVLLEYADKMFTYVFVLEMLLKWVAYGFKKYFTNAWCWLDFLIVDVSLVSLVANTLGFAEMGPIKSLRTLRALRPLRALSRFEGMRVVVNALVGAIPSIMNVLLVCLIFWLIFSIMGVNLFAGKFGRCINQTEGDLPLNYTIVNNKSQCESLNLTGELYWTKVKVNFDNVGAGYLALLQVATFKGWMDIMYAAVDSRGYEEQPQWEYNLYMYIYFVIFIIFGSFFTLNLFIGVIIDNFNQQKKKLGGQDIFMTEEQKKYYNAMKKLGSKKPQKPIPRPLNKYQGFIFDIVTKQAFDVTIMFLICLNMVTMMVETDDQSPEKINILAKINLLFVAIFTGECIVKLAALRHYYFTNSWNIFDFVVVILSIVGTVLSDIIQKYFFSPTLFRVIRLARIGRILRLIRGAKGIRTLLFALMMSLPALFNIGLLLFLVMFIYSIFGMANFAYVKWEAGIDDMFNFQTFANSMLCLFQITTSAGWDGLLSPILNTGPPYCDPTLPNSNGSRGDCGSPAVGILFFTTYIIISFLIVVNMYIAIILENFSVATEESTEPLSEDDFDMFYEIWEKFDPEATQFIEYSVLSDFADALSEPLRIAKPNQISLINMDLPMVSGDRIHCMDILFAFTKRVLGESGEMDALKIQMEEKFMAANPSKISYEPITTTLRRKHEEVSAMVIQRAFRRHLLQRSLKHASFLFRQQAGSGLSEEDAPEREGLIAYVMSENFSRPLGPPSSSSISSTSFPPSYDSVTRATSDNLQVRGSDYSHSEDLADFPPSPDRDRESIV

Take `CC(C)C[C@H](NC(=O)c1cc(C2CC2)c(OCC23CC4CC(CC(C4)C2)C3)cc1F)C(=O)O` [Example 88, (S)-2-(4-(adamantan-1-ylmethoxy)-5-cyclopropyl-2-fluorobenzamido)-4-methylpentanoic acid]: the IC50 at hNav1.7 was 0.43 µM; against human NaV1.7, 7 µM; at NaV1.5 (read-out: Nav1.5), 8.2 µM.

As to `O=C(O)C1COCN1C(=O)c1cc(C2CC2)c(OCC23CC4CC(CC(C4)C2)C3)cc1F` (stereo in doubt) [Example 154, (4R)-3-[4-(1-adamantylmethoxy)-5-cyclopropyl-2-fluoro-benzoyl]oxazolidine-4-carboxylic acid], the values for the IC50 at hNav1.7, on human NaV1.7 and at NaV1.5 (read-out: Nav1.5) were 0.059 µM, 0.83 µM and 16 µM, respectively.

With `O=C(O)[C@@H]1CC(F)(F)CN1C(=O)c1cc(C2CC2)c(OCC23CC4CC(CC(C4)C2)C3)cc1F` [Example 160, (2S)-1-[4-(1-adamantylmethoxy)-5-cyclopropyl-2-fluoro-benzoyl]-4,4-difluoro-pyrrolidine-2-carboxylic acid], the results for the IC50 at hNav1.7, against human NaV1.7 and on NaV1.5 (read-out: Nav1.5) were 0.035 µM, 0.64 µM and 16 µM, respectively.

As for `C[C@H](c1cc(Cl)cc(Cl)c1)N1CCC[C@H](COc2cc(F)c(C(=O)N3CCC[C@H]3C(=O)O)cc2C2CC2)C1` (single isomer, unassigned) [Example 73a], the IC50 on hNav1.7 came out at 0.36 µM; against human NaV1.7 it was 2.2 µM; at NaV1.5 (read-out: Nav1.5) it was 12 µM.

As for `C[C@@H](c1cc(Cl)cc(Cl)c1)N1CCC(COc2cc(F)c(C(=O)N3CCC[C@H]3C(=O)O)cc2C2CC2)CC1` (single isomer, unassigned) [Example 79a], the IC50 on hNav1.7 was 0.047 µM; against human NaV1.7, 0.69 µM; against NaV1.5 (setting [1]), not below 30 µM.

On to `C[C@@]1(C(=O)O)CCCN1C(=O)c1cc(C2CC2)c(OCC23CC4CC(CC(C4)C2)C3)cc1F` [Example 51, (S)-1-(4-((adamantan-1-yl)methoxy)-5-cyclopropyl-2-fluorobenzoyl)-2-methylpyrrolidine-2-carboxylic acid], for which the IC50 on hNav1.7 stood at 0.1 µM; at human NaV1.7, 0.92 µM; at NaV1.5 (read-out: Nav1.5), 14 µM.

Take `C[C@@]1(COc2cc(F)c(C(=O)N3CCC[C@H]3C(=O)O)cc2C2CC2)CCN(c2cc(C(F)(F)F)c(Cl)cn2)C1` [Example 136, (S)-1-(4-(((R)-1-(5-chloro-4-(trifluoromethyl)pyridin-2-yl)-3-methylpyrrolidin-3-yl)methoxy)-5-cyclopropyl-2-fluorobenzoyl)pyrrolidine-2-carboxylic acid]: the IC50 on hNav1.7 was 0.11 µM; against human NaV1.7 it was 1.1 µM; at NaV1.5 (setting [1]), not below 30 µM.

As to `O=C(c1cc(C2CC2)c(OCC23CC4CC(CC(C4)C2)C3)cc1F)N1CC2CC1(C(=O)O)C2` [Example 176, 3-[4-(1-adamantylmethoxy)-5-cyclopropyl-2-fluoro-benzoyl]-3-azabicyclo[2.1.1]hexane-4-carboxylic acid], the IC50 at hNav1.7 stood at 0.36 µM; on human NaV1.7 it was 1.3 µM; on NaV1.5 (read-out: Nav1.5), 7.2 µM.

As for `C[C@@H]1[C@H](F)CN(C(=O)c2cc(C3CC3)c(OCC34CC5CC(CC(C5)C3)C4)cc2F)[C@@H]1C(=O)O` [Example 210a, (2S,3S,4S)-1-(4-(adamantan-1-ylmethoxy)-5-cyclopropyl-2-fluorobenzoyl)-4-fluoro-3-methylpyrrolidine-2-carboxylic acid], the figures for the IC50 on hNav1.7, against human NaV1.7 and on NaV1.5 (read-out: Nav1.5) were 0.22 µM, 1.9 µM and 27 µM, respectively.

As to `C[C@H]1CCN(C(=O)c2cc(C3CC3)c(OCC3(C)CN([C@@H](c4ccccc4)c4cc(Cl)cc(Cl)c4)C3)cc2F)[C@@H]1C(=O)O` (single isomer, unassigned) [Example 116], the results for the IC50 at hNav1.7, against human NaV1.7 and at NaV1.5 (read-out: Nav1.5) were 0.012 µM, 0.58 µM and 15 µM, respectively.

As to `CC1(C)CCC(COc2cc(F)c(C(=O)N3CCC[C@H]3C(=O)O)cc2C2CC2)CC1` [Example 68, (S)-1-(5-cyclopropyl-4-((4,4-dimethylcyclohexyl)methoxy)-2-fluorobenzoyl)pyrrolidine-2-carboxylic acid], the IC50 on hNav1.7 was 0.1 µM; against human NaV1.7, 0.52 µM; at NaV1.5 (read-out: Nav1.5) it was 19 µM.

For the molecule `CC(C)[C@H](NC(=O)c1cc(C2CC2)c(OCC23CC4CC(CC(C4)C2)C3)cc1F)C(=O)O` [Example 66, (S)-2-(4-(adamantan-1-ylmethoxy)-5-cyclopropyl-2-fluorobenzamido)-3-methylbutanoic acid], the IC50 on hNav1.7 was 0.07 µM; at human NaV1.7, 0.8 µM; at NaV1.5 (read-out: Nav1.5), 8.1 µM.

Consider `O=C(O)[C@@H]1[C@H](O)CCN1C(=O)c1cc(C2CC2)c(OCC23CC4CC(CC(C4)C2)C3)cc1F` [Example 62, (2S, 3R)-1-(4-((adamantan-1-yl)methoxy)-5-cyclopropyl-2-fluorobenzoyl)-3-hydroxypyrrolidine-2-carboxylic acid], for which the IC50 turned out to be 0.16 µM at hNav1.7, 1.1 µM against human NaV1.7 and 28 µM on NaV1.5 (read-out: Nav1.5).

Consider `C[C@H]1OCN(C(=O)c2cc(C3CC3)c(OCC3CCN([C@@H](c4cc(Cl)cc(Cl)c4)C(F)(F)F)CC3)cc2F)[C@@H]1C(=O)O` (single isomer, unassigned) [Example 138b], for which the IC50 on hNav1.7 turned out to be 0.0076 µM; at human NaV1.7, 0.32 µM; on NaV1.5 (read-out: Nav1.5), 11 µM.

For the molecule `O=C(O)[C@@H]1CCCN1C(=O)c1cc(C2CC2)c(OCC23CCC(F)(CC2)CC3)cc1F` [Example 56, (5-cyclopropyl-2-fluoro-4-((4-fluorobicyclo[2.2.2]octan-1-yl)methoxy)benzoyl)-L-proline], the IC50 is 0.41 µM at hNav1.7, 1.8 µM against human NaV1.7 and not below 30 µM at NaV1.5 (setting [1]).

Take `O=C(O)[C@@H]1C=C(C(F)(F)F)CN1C(=O)c1cc(C2CC2)c(OCC23CC4CC(CC(C4)C2)C3)cc1F` [Example 203]: the IC50 on hNav1.7 is not below 10 µM; against human NaV1.7 it was 10 µM; at NaV1.5 (read-out: Nav1.5) it was 19 µM.

`O=C(N[C@@H](CC1CC1)C(=O)O)c1cc(C2CC2)c(OCC23CC4CC(CC(C4)C2)C3)cc1F` [Example 189, (S)-2-(4-((3S,5S,7S)-adamantan-1-ylmethoxy)-5-cyclopropyl-2-fluorobenzamido)-3-cyclopropylpropanoic acid]: the IC50 on hNav1.7 turned out to be 0.12 µM; on human NaV1.7 it was 4 µM; on NaV1.5 (read-out: Nav1.5), 15 µM.

`O=C(O)[C@@H]1CCCN1C(=O)c1cc(C2CCC2)c(OCC23CC4CC(CC(C4)C2)C3)cc1F` [Example 194, (S)-1-(4-(adamantan-1-ylmethoxy)-5-cyclobutyl-2-fluorobenzoyl)pyrrolidine-2-carboxylic acid trifluoroacetate]: the IC50 came to 0.022 µM at hNav1.7, 0.64 µM on human NaV1.7 and 10 µM at NaV1.5 (read-out: Nav1.5).

Turning to `O=C(O)[C@@H]1CC(O)(C(F)(F)F)CN1C(=O)c1cc(C2CC2)c(OCC23CC4CC(CC(C4)C2)C3)cc1F` (stereo partly drawn) [Example 213, (2S)-1-(4-((adamantan-1-yl)methoxy)-5-cyclopropyl-2-fluorobenzoyl)-4-hydroxy-4-(trifluoromethyl)pyrrolidine-2-carboxylic acid], the IC50 at hNav1.7 came to 5.3 µM; against human NaV1.7, 3.4 µM; at NaV1.5 (read-out: Nav1.5), 7.6 µM.

For the molecule `CC(C)COc1ncc(Oc2cc(F)c(C(=O)N[C@H](C(=O)O)C(C)C)cc2Cl)cc1Cl` [Example 185, (S)-2-(5-chloro-4-((5-chloro-6-isobutoxypyridin-3-yl)oxy)-2-fluorobenzamido)-3-methylbutanoic acid], the IC50 at hNav1.7 worked out at 0.1 µM; against human NaV1.7, 9.6 µM; at NaV1.5 (read-out: Nav1.5) it was 17 µM.

The values above are taken from patent publication US10125098B2, “Therapeutic compounds and methods of use thereof” (GENENTECH, INC., priority 2014, dated 2018).
